Here are results for four molecules from patent US10987317B2, “Inhibition of glutaminase C” (Cornell University, priority 2009, dated 2021).

Experiment [1] has as its system GA activity in Dbl- and Cdc42(F28L)-expressing NIH 3T3 cells. As to the kind of experiment: GA activity in mitochondrial fractions of transformed fibroblasts. Format: cell-based. Conditions: Dbl-transformed cells, 2 μM. Here is the method: (§1) 100%=620 moles of glutamine hydrolyzed per minute per mole of enzyme. Data represent the average of 3 experiments (±s.d.). […] Following precipitation of the beads and re-suspension, the samples are analyzed by Western blotting with anti-V5 antibody. […] Data represent the average of 3 experiments (±s.d.). […] Data represent the average of 3 experiments (±s.d.). […] Data represent the average of 3 experiments (±s.d.). FIG. 3E NIH 3T3 cells transiently expressing Dbl are assayed for focus formation in the presence of 10 μM 968 alone or together with […] dimethyl α-ketoglutarate. […] 100%=680 nM glutamine hydrolyzed per minute per 10^5 cells. Data are the average of 3 experiments (=s.d.). […] 100%=750 nM glutamine hydrolyzed per minute per 10^5 cells. Data represent the average of 3 experiments (±s.d.).
(§2) FIGS. 4A-E illustrate the role of glutaminase C activity in cellular transformation. […] Data represent the average of 3 experiments (±s.d.). […] Data represent the average of 3 experiments (±s.d.). […] 100% represents the activity measured in untreated Dbl-transformed cells. The data represent the average of 2 experiments. […] 100% represents the activity measured in untreated SKBR3 cells. The data represent the average of 2 experiments. […] Data represent the average of 3 experiments (±s.d.).
FIGS. 11A-E illustrate the effects of different treatments on GA activity. […] The addition of Pi stimulated the GA activity in control 3T3 cells, Dbl-expressing cells, and Cdc42(F28L)-expressing cells by ˜6-fold, 2-fold, and 3-fold, respectively. 100% represents the Pi-stimulated activity measured for Dbl-transformed cells that are not treated with 968. Data is the average of 3 experiments (±s.d.). […] The addition of Pi stimulated the GA activity of HMECs, MDA-MB231 cells, and SKBR3 cells by ˜5-fold, 2-fold, and 1.4-fold, respectively. 100% represents the Pi-stimulated activity for SKBR3 cells that were not treated with 968. Data are the average of 3 experiments (±s.d.). […] Mitochondrial fractions are prepared from equal numbers of cells and assayed for GA activity in the presence or absence of 133 mM Pi. The data are plotted as the percentage of GA activity measured for untreated SKBR3 cells and represent the average of 2 experiments. […] 100% represents the P1-stimulated activity measured for untreateDbl-transformed cells. The data represent the average of 2 experiments. […] 100% represents the Pi-stimulated activity for untreated SKBR3 cells. The data represent the average of 2 experiments.
Mitochondrial preparations were obtained using the mitochondria isolation kit from QIAGEN (Cat #37612). A suspension containing 2×10^7 cells was transferred into a 50 ml conical tube and centrifuged at 500×g for 10 minutes at 4° C. […]

For experiment [2], the system named is GA activity in SKBR3 cells. Put plainly: GA activity in mitochondrial fractions. The class given is cell-based, human. Conditions: 2 μM. As for the experimental part:
as §1, §2
FIGS. 11A-E illustrate the effects of different treatments on GA activity. […] The addition of Pi stimulated the GA activity in control 3T3 cells, Dbl-expressing cells, and Cdc42(F28L)-expressing cells by ˜6-fold, 2-fold, and 3-fold, respectively. 100% represents the Pi-stimulated activity measured for Dbl-transformed cells that are not treated with 968. Data is the average of 3 experiments (±s.d.). […] The addition of Pi stimulated the GA activity of HMECs, MDA-MB231 cells, and SKBR3 cells by ˜5-fold, 2-fold, and 1.4-fold, respectively. […] The data are plotted as the percentage of GA activity measured for untreated SKBR3 cells and represent the average of 2 experiments. […] 100% represents the P1-stimulated activity measured for untreateDbl-transformed cells. […]

The test system of experiment [3] is NIH 3T3 cells transfected with oncogenic Dbl. Put plainly: Dbl-induced cellular transformation (focus-forming assays, growth in low serum, soft agar). The class given is cell-based. Conditions: focus formation / growth in low serum. Here is the method: FIGS. 1A-E illustrate that the small molecule 968 inhibiting cellular transformation. […] Cells were fixed and stained with crystal violet for counting of foci. Right: 968 was serially diluted (10, 5, 2.5, and 1.25 μM) and evaluated for its ability to inhibit focus formation. […] After 6 days, the cells are counted. 100% represents the number of Dbl-transformed cells counted in the absence of 968 (27.5×10^4 cells). Data represent the average of 3 experiments (±s.d.). […] At the indicated times, the cells are counted. Data represent the average of 3 experiments (±s.d.).
FIGS. 2A-G illustrate effects of 968 on the transforming activity of constitutively active Rho GTPases and human breast cancer cells. […] Cells are scored after 14 days and plotted as the percentage of the total number of colonies greater than […] in diameter. Data represent the average of 3 experiments (±s.d.). […] Data represent the average of 3 experiments (±s.d.). […] Data represent the average of 3 experiments (±s.d.). […] After 24 hours at 37° C. the migratory cells are fixed, stained with GIEMSA, and counted. Data represent the average of 3 experiments (±s.d.). […] Data represent the average of 3 experiments (±s.d.). […] Data represent the average of 3 experiments (±s.d.). […] Data represent the average of 3 experiments (±s.d.).
FIGS. 5A-C illustrate comparative abilities of 968 and other benzo[a]phenanthrldinones to inhibit the transforming activity of oncogenic Dbl and H-Ras. […] Histograms show the relative levels of Dbl-induced focus formation for the different treatments, compared to Dbl-induced focus formation measured in the presence of DMSO (i.e. solvent control). Data represent the average of 3 experiments (mean±s.d.). […] Histograms show the relative levels of Ras(G12V)-induced focus formation measured for the different treatments, compared to Ras(G12V)-induced focus formation measured in the presence of DMSO (solvent control). Data represent the average of 3 experiments (mean±s.d.). FIG. 5C NIH 3T3 cells stably expressing H-Ras(G12V) that are cultured in DMEM supplemented with 1% calf serum, with the indicated amounts of 968. After 6 days, cells are trypsinized and counted. 100% represents the number of cells counted in the absence of 968, i.e. 26×10^4 cells. Data represent the average of 3 experiments (mean±s.d.).

In experiment [4] the target is T1, E. coli-expressed mouse ortholog of human GAC (Mus musculus, UniProt D3Z7P3).
T1 construct: A plasmid encoding mouse GAC (residues 128-603) was cloned into the pET28a vector; His-tag (N, cleaved yes); made in house; host or cells: E. coli (pET28a)
T1 sequence (D3Z7P3 128-603 isoform D3Z7P3-2): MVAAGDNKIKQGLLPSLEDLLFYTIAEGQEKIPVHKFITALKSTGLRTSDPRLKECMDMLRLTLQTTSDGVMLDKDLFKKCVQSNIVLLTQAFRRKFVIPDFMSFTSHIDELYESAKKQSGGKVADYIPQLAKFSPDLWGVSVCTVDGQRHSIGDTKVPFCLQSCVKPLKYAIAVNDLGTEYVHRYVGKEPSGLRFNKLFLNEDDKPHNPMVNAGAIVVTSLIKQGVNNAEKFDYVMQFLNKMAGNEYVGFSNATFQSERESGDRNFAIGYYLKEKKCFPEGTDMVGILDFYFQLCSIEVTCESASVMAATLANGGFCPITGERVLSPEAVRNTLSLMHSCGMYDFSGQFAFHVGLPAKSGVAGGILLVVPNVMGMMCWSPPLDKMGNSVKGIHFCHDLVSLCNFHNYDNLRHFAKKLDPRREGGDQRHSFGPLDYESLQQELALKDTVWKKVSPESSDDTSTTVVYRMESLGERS
As to the kind of experiment: Recombinant glutaminase activity assay. Format: biochemical. As for the experimental part:
as §1
The activity of the E. coli-expressed recombinant mouse ortholog of human GAC are assayed in the presence of 0 (●), 10 (∇) or 20 (▪) μM 968 and inorganic phosphate in the form of dipotassium hydrogen phosphate. […] The data are plotted as GA activity as function of varying concentrations of glutamine or inorganic phosphate. The data are the average of 3 experiments and are plotted as mean±SEM.
Glutaminase activity assays were performed on recombinant enzyme as previously described (Kenny et al., “Bacterial Expression, Purification and Characterization of Rat Kidney-Type Mitochondrial Glutaminasc,” Protein Expr. Purif 31:140-148 (2003), which is hereby incorporated by reference in its entirety). A plasmid encoding mouse GAC (residues 128-603) was cloned into the pET28a vector and the protein was expressed with an N-terminal histidine (His)-tag. The tag was cleaved using thrombin and the protein was further purified by anion-exchange and gel-filtration chromatography. […] The reaction mixture was incubated at room temperature for 45 minutes and the absorbance at 340 nm was recorded for each sample against a water blank. The absorbance of the sample with just the cocktail mixture was subtracted from each reading to calculate the activity of the enzyme.

Experiment [5] deals with T2, V5-tagged GAC from Dbl-transformed NIH 3T3 cells (Mus musculus, UniProt D3Z7P3).
T2 construct: expressed in transfected cells; host or cells: NIH 3T3 cells stably expressing oncogenic Dbl
T2 sequence (D3Z7P3 55-603 isoform D3Z7P3-2 limits assumed): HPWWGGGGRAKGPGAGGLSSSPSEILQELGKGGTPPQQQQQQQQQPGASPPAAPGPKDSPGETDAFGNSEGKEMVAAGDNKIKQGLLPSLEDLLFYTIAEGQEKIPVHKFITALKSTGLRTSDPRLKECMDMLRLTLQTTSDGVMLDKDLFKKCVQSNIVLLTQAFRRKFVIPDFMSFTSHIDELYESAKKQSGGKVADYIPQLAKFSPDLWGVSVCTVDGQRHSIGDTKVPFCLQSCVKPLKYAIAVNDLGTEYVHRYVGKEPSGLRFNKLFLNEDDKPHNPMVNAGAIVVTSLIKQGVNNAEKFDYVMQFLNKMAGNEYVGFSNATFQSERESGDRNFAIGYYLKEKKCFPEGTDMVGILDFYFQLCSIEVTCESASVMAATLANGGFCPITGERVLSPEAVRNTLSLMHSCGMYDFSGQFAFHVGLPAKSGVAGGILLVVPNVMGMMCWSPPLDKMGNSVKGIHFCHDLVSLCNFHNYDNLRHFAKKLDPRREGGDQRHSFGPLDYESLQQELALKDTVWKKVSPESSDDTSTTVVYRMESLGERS
Put plainly: GA activity of immunoprecipitated V5-GAC. Format: cell-based. The following applies: GAC isolated from Dbl cells, dephosphorylation conditions.
Excerpt: as §2
NIH 3T3 cells or NIH 3T3 cells stably expressing the Dbl oncogene, were transiently transfected with DNA encoding a V5-tagged GAC. The cells were then harvested and the ectopically expressed GAC was isolated by immunoprecipitation via the V5 tag. The VS-GAC obtained from one of the Dbl samples was additionally treated with alkaline phosphtase under dephosphorylation conditions. The samples were then assayed for glutaminase activity in the absence of phosphate (top panel) and the relative expression levels of VS-GAC was determined by Western blotting using an anit-V5 antibody (bottom panel).
NIH 3T3 cells stably expressing oncogenic Dbl were transiently transfected with DNA encoding VS-tagged GAC, and cells were treated with either 968 or BA-968 ([…]) as indicated for 48 hours. The cells were then harvested and the ectopically expressed GAC was isolated by immunoprecipitation via the V5 tag. The samples were then assayed for glutaminase activity in the absence of phosphate (top panel) and the relative expression levels of VS-GAC was determined by Western blotting using an anti-V5 antibody (bottom panel).

Entries after “also recorded” stand apart in the source; their conditions may differ.

Consider `Cc1ccc(S(=O)(=O)/C=C/C#N)cc1` [BAY 11-7082, reference compound], for which the “direct stimulation of the enzyme by phosphate” value in experiment [1] and in experiment [2] was “little or no effect” each time. Also, the “basal GA activity” value in experiment [1] (2 days) and in experiment [2] was “significantly reduces” in each case.

For `CC1(C)CC(=O)C2=C(C1)c1c(ccc3ccccc13)NC2c1cccc(Br)c1` (centres unmarked) [Compound 335], the “inhibition of Dbl-induced transformation” value in experiment [3] is “little or no inhibition; also recorded: less effective”. In experiment [4], the “inhibition of enzymatic activity of purified GAC” value is recorded as “little ability to inhibit enzyme activity”.

With `CN(C)c1ccc(C2Nc3ccc4ccccc4c3C3=C2C(=O)CC(C)(C)C3)cc1` (centres unmarked) [Compound 384], in experiment [3], the “inhibition of Dbl-induced transformation” value is “little or no inhibition”.

With “alkaline phosphatase [reference compound]”, the “reduction of basal glutaminase (phosphate independent) activity” value in experiment [5] worked out at 75%.
